Values joined by “and” are separate entries in the source; they are usually repeats but may differ in a detail not shown here. Identical values can stand only once.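 These data come from cells grown in 96-well plates and exposed to compound for 48 hours at five concentrations. GI50 marks 50% less growth. The concentration for full growth arrest is given as TGI.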
What was measured:
Test in all cases: growth of human tumour cells (NCI), 48 h
TK-10 renal = system: TK-10 renal
LXFL 529 NSCLC = system: LXFL 529 NSCLC
HOP-92 NSCLC = system: HOP-92 NSCLC
NCI-H460 lung = system: NCI-H460 lung
HOP-62 NSCLC = system: HOP-62 NSCLC
SF-539 CNS = system: SF-539 CNS
DMS 114 small cell lung = system: DMS 114 small cell lung
SK-MEL-28 melanoma = system: SK-MEL-28 melanoma
A549 NSCLC = system: A549 NSCLC
NCI/ADR-RES ovarian = system: NCI/ADR-RES ovarian

Structure (SMILES): O=c1/c(=C/c2cccc3ccccc23)sc2nc3ccccc3n12
- TGI (TK-10 renal): > 100 µM
- TGI (LXFL 529 NSCLC): > 100 µM
- TGI (HOP-92 NSCLC): > 100 µM
- TGI (NCI-H460 lung): > 100 µM
- TGI (HOP-62 NSCLC): > 100 µM
- TGI (SF-539 CNS): > 100 µM
- TGI (DMS 114 small cell lung): > 100 µM
- TGI (SK-MEL-28 melanoma): > 100 µM
- TGI (A549 NSCLC): > 100 µM

Structure (SMILES): COc1ccc(OC)c(/C=C/[N+](=O)[O-])c1
- GI50 (TK-10 renal): 1.86 µM and 5.04 µM
- TGI (TK-10 renal): 4.58 µM and 10.5 µM
- TGI (LXFL 529 NSCLC): 4.83 µM
- TGI (NCI/ADR-RES ovarian): 21 µM
- GI50 (HOP-92 NSCLC): 2.04 µM
- TGI (HOP-92 NSCLC): 7.23 µM and 10.4 µM
- GI50 (NCI-H460 lung): 2.91 µM
- TGI (NCI-H460 lung): 9.32 µM and 13.9 µM
- TGI (HOP-62 NSCLC): 8.27 µM and 9.56 µM
- TGI (SF-539 CNS): 13.8 µM and 10.4 µM
- TGI (DMS 114 small cell lung): 11.9 µM
- TGI (SK-MEL-28 melanoma): 4.96 µM and 9.45 µM
- GI50 (A549 NSCLC): 2.85 µM
- TGI (A549 NSCLC): 15.4 µM and 13.6 µM

Structure (SMILES): [Cu+2].[Cu+2].[O-]c1ccccc1C=Nc1ccccc1[O-].[O-]c1ccccc1C=Nc1ccccc1[O-]
- GI50 (TK-10 renal): 18.3 µM
- TGI (TK-10 renal): 32.3 µM
- GI50 (LXFL 529 NSCLC): 3.02 µM
- TGI (LXFL 529 NSCLC): 9.48 µM
- GI50 (HOP-62 NSCLC): 21.9 µM
- TGI (HOP-62 NSCLC): 36.6 µM
- GI50 (SF-539 CNS): 13.2 µM
- TGI (SF-539 CNS): 25.9 µM
- GI50 (DMS 114 small cell lung): 1.96 µM
- TGI (DMS 114 small cell lung): 5.13 µM
- GI50 (SK-MEL-28 melanoma): 13.3 µM
- TGI (SK-MEL-28 melanoma): 26 µM
- GI50 (A549 NSCLC): 7.56 µM
- TGI (A549 NSCLC): 27.8 µM

Structure (SMILES): O=CC1=CCCC2(C1)OCCO2
- TGI (TK-10 renal): > 100 µM
- TGI (LXFL 529 NSCLC): > 100 µM
- TGI (HOP-92 NSCLC): > 100 µM
- TGI (NCI-H460 lung): > 100 µM
- TGI (HOP-62 NSCLC): > 100 µM
- TGI (SF-539 CNS): > 100 µM
- TGI (DMS 114 small cell lung): > 100 µM
- TGI (SK-MEL-28 melanoma): > 100 µM
- TGI (A549 NSCLC): > 100 µM

Structure (SMILES): CCCCN(CC)C(=O)C(=O)C1C(=O)Nc2ccccc2S1=O (stereo unspecified)
- TGI (TK-10 renal): > 100 µM
- TGI (LXFL 529 NSCLC): > 100 µM
- TGI (HOP-92 NSCLC): > 100 µM
- TGI (NCI-H460 lung): > 100 µM
- TGI (HOP-62 NSCLC): > 100 µM
- TGI (SF-539 CNS): > 100 µM
- TGI (DMS 114 small cell lung): > 100 µM
- TGI (SK-MEL-28 melanoma): > 100 µM
- TGI (A549 NSCLC): > 100 µM

Structure (SMILES): COc1cc2c(cc1OC)C1c3ccccc3C(C#N)(C2)N(C(=O)c2ccccc2)C1O (stereo unspecified)
- TGI (TK-10 renal): > 100 µM
- TGI (LXFL 529 NSCLC): > 100 µM
- TGI (HOP-92 NSCLC): > 100 µM
- TGI (NCI-H460 lung): > 100 µM
- TGI (HOP-62 NSCLC): > 100 µM
- TGI (SF-539 CNS): > 100 µM
- TGI (DMS 114 small cell lung): > 100 µM
- TGI (SK-MEL-28 melanoma): > 100 µM

Structure (SMILES): CN(C)CCNC(=O)c1ccc2ccc3cccnc3c2n1
- TGI (TK-10 renal): 62.8 µM
- TGI (LXFL 529 NSCLC): > 100 µM
- TGI (HOP-92 NSCLC): 65.2 µM
- TGI (NCI-H460 lung): 35.9 µM
- TGI (HOP-62 NSCLC): 63.1 µM
- TGI (SF-539 CNS): 33.7 µM
- TGI (DMS 114 small cell lung): 25.6 µM
- TGI (SK-MEL-28 melanoma): > 61.6 µM
- TGI (A549 NSCLC): > 52.9 µM

Structure (SMILES): CC(=O)[CH-]C(=O)c1ccccc1.CC(=O)[CH-]C(=O)c1ccccc1.[Nd+3].[OH-].[OH3+]
- GI50 (TK-10 renal): > 100 µM
- TGI (TK-10 renal): > 100 µM
- GI50 (LXFL 529 NSCLC): > 100 µM
- TGI (LXFL 529 NSCLC): > 100 µM
- GI50 (HOP-92 NSCLC): > 100 µM
- TGI (HOP-92 NSCLC): > 100 µM
- GI50 (NCI-H460 lung): > 100 µM
- TGI (NCI-H460 lung): > 100 µM
- GI50 (HOP-62 NSCLC): > 100 µM
- TGI (HOP-62 NSCLC): > 100 µM
- GI50 (SF-539 CNS): > 100 µM
- TGI (SF-539 CNS): > 100 µM
- GI50 (SK-MEL-28 melanoma): > 100 µM
- TGI (SK-MEL-28 melanoma): > 100 µM
- GI50 (A549 NSCLC): > 100 µM
- TGI (A549 NSCLC): > 100 µM

Structure (SMILES): O=C(NC1CCCCC1)c1c(O)[nH]c(=S)[nH]c1=O
- TGI (TK-10 renal): > 100 µM
- TGI (LXFL 529 NSCLC): > 100 µM
- TGI (HOP-92 NSCLC): > 100 µM
- TGI (NCI-H460 lung): > 100 µM
- TGI (HOP-62 NSCLC): > 100 µM
- TGI (SF-539 CNS): > 100 µM
- TGI (DMS 114 small cell lung): > 100 µM
- TGI (SK-MEL-28 melanoma): > 100 µM
- TGI (A549 NSCLC): > 100 µM

Structure (SMILES): O=C(O)CSc1n[nH]c(/C=C/c2ccccc2)n1
- TGI (TK-10 renal): > 100 µM
- TGI (LXFL 529 NSCLC): > 100 µM
- TGI (HOP-92 NSCLC): > 100 µM
- TGI (NCI-H460 lung): > 100 µM
- TGI (HOP-62 NSCLC): > 100 µM
- TGI (SF-539 CNS): > 100 µM
- TGI (DMS 114 small cell lung): > 100 µM
- TGI (SK-MEL-28 melanoma): > 100 µM
- TGI (A549 NSCLC): > 100 µM

Structure (SMILES): CC(NC(=O)c1ccccc1)C(=O)N(Cc1ccccc1)Cc1ccccc1 (stereo unspecified)
- TGI (TK-10 renal): > 100 µM
- TGI (LXFL 529 NSCLC): 53.4 µM
- TGI (HOP-92 NSCLC): 68.7 µM
- TGI (NCI-H460 lung): 65.4 µM
- TGI (HOP-62 NSCLC): 66.4 µM
- TGI (SF-539 CNS): > 100 µM
- TGI (DMS 114 small cell lung): 53.8 µM
- TGI (SK-MEL-28 melanoma): 97.6 µM
- TGI (A549 NSCLC): > 100 µM

Structure (SMILES): N=C(N)/N=C(/C=C/c1ccccc1)CC1OC(=O)c2ccccc21 (stereo unspecified)
- TGI (LXFL 529 NSCLC): > 100 µM
- TGI (NCI-H460 lung): > 100 µM
- TGI (HOP-62 NSCLC): > 100 µM
- TGI (SF-539 CNS): > 100 µM
- TGI (DMS 114 small cell lung): > 100 µM
- TGI (A549 NSCLC): > 100 µM
